# Reference: patent US20240011070A1, “METHODS AND COMPOSITIONS FOR PROTEASE REPORTER ASSAYS AND MODULATORS” (712 North Inc., priority 2020, published 2024)
# “Also recorded” adds a separate entry of the source. Read-outs that look alike come from different tables or passages of the source.
# Assays:
# OMA1 protease [1] = target: T1, OMA1 protease (Homo sapiens, UniProt Q96E52); experiment: cell-based
# T1 sequence (Q96E52 144-524): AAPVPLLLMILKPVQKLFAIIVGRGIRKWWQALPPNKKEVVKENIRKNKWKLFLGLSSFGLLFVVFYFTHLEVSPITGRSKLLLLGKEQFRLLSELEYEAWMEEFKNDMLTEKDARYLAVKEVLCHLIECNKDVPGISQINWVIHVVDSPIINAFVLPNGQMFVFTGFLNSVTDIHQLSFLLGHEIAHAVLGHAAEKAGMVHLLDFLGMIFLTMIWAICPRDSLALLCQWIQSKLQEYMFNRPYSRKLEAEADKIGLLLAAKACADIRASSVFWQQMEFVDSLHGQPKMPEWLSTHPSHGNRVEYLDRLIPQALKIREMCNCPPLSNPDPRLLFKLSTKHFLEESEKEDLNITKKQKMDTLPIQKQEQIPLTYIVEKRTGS
# From the text: Example 1 provides a nonlimiting example of generation and use of a reporter of present invention and illustrates its function. To this end, generation and use of reporter gene #01 (SEQ ID NO: 01) and reporter gene #15 (SEQ ID NO: 15) are described and their function compared to each other. The general design of a reporter of present invention is illustrated in FIG. 1A and its working principle in FIG. 1B. A reporter in general, and reporter gene #01 and reporter gene #15 in particular, can be generated as follows. DNA sequences of a reporter may be codon-optimized in silico or by any other way for expression in a suitable host. DNA sequences of reporter genes #01 and #15 were codon-optimized for expression in humans (SEQ ID NO: 02 and SEQ ID NO: 16, respectively). The (optimized) sequences were synthesized and cloned into a pcDNA3.1 expression vector under the control of a CMV promotor (see FIG. 1 for an illustration of such vector). Of course, an expression system and a host should match for best results. The host in this example were Hek293T cells, which were maintained under standard culture conditions in DMEM with 10% Fetal Bovine Serum and 1% Pen/Strep. For an experiment, Hek293T cells were seeded in opaque white tissue-culture treated 96-well plates at 80% confluency and transfected with vectors carrying reporter gene #01 and reporter gene #15 and 24 hours later incubated for 30 minutes at 37° C. in OptiMEM or in OptiMEM with 10 μM CCCP. After 30 minutes, the OptiMEM cell-culture media was replaced with luciferase substrate (furimazine, Promega) diluted 1:100 in OptiMEM, and bioluminescence was measured with a Fluoroskan Ascent FL (Thermo Scientific) using a 517 nm single-pass filter and 200 milliseconds integration time. […] Reporter #01 comprises a large part of OPA1's amino-terminus as mitochondrial targeting sequence, which is cleaved by the mitochondrial processing peptidase upon mitochondrial import (see Example 2). Reporter #15 was initially envisioned as a control for reporter #01. Reporter #15 therefore lacks the first 66 amino acids of reporter #01 believed to be essential for mitochondrial import.
# Example 5 illustrates how mitochondrial toxicity can be measured with reporter and assays of present invention. The OMA1-OPA1 pathway basically serves as a “canary-in-the-coalmine” for a mitochondrial deterioration. […] Hek293T cells expressing reporter #01 and #15 were exposed to CCCP, tipranavir and sorafenib (in OptiMEM) for 30 minutes before the medium was replaced with furimazine (1:100), and bioluminescence measured.
# OMA1 protease [2] = target: T1, OMA1 protease; experiment: Luke-TEV (TEV site instead of S1) reporter assay in Hek293T cells; format: cell-based; set-up: The OMA 1 enzyme is dormant under physiological cell culture conditions in these cells; endogenous in cells
# NanoLuc luciferase = target: T2, NanoLuc luciferase (Oplophorus gracilirostris, UniProt Q9GV45, A31E/A60N/A81I/F95D/I117V/K70R/L54V/L99Q/M102K/N193R/P142E/Q151K/Q38R/Q45L/V71I/Y165I); experiment: Luke (native NanoLuc) control cell assay in Hek293T cells; format: cell-based
# T2 construct: expressed in transfected cells; host or cells: 'Luke' cells
# T2 sequence (Q9GV45 with tags, fused parts or gaps with the stated changes): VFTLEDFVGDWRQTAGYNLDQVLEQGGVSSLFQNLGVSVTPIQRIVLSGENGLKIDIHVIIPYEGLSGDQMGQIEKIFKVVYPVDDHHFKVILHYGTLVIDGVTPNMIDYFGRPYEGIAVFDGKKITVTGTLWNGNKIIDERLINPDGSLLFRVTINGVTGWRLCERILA
# From the text: Example 6 refers to FIG. 11 and introduces the Luke-S1 reporter cell line, which is based on a modified NanoLuc complementation system (Dixon, et al. ACS Chem Biol (2016) 11(2): 400-8). […] Luke-S1 is targeted to the mitochondrial inner membrane by an 86 amino acid portion of OPA1's c-terminus with the protein sequence SEQ ID NO: 27 and the DNA sequence SEQ ID NO:28. A reporter in which the S1 site was replaced by a TEV cleavage site (referred to as ‘Luke-TEV’) and the native NanoLuc enzyme (referred to as ‘Luke’) served as controls.
# OMA1 protease [3] = target: OMA1 protease (Mus musculus, UniProt Q9D8H7); details: Neuro2A cells
# Chain of OMA1 protease (Mus musculus, UniProt Q9D8H7) (Q9D8H7 140-521): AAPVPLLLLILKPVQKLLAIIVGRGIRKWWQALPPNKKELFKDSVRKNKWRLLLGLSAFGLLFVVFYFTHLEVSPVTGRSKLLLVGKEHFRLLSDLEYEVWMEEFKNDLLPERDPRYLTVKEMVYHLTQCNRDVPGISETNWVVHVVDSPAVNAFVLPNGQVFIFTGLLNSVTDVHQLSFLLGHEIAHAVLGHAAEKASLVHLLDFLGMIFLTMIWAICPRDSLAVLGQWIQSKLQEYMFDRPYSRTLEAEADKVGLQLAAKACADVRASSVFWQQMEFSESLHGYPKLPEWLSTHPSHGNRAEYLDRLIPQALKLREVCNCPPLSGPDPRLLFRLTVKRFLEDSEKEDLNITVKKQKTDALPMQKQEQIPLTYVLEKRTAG
# From the text: In this example, the S1-cleavage site of reporter #15 was replaced with a TEV-cleavage site (see also Example 6). Neuro2A cells were transfected with reporter #15-S1 and reporter #15-TEV and selected by puromycin. […] FIG. 7 provides an overview of the arrangement of elements of different reporter genes, which comprise inter alia the amino acid sequences of SEQ ID NO: 01 (Rep #01), SEQ ID NO: 03 (Rep #04), SEQ ID NO: 09 (Rep #08), SEQ ID NO: 13 (Rep #10), and SEQ ID NO: 15 (Rep #15).
# L-OPA1 = experiment: OPA1 hydrolysis in Hek293T cells by Western blot; format: cell-based; details: 30 minutes
# From the text: (§1) OPA1 hydrolysis can be monitored by Western blotting. […] The predicted size of full-length Luke-S1 is 31.8 kDa.
# OMA1 protease [4] = target: T1, OMA1 protease; experiment: Reporter hydrolysis in Hek293T reporter cells by Western blot; format: cell-based; set-up: The OMA 1 enzyme is dormant under physiological cell culture conditions in these cells; endogenous in cells; details: for Luke-S1 reporter cleavage in Western blots / Luke-TEV reporter cleavage in Western blots: 3 μM CCCP or 100 nM valinomycin
# Procedure: For this example, transfected cells were selected by puromycin. […] […] If reporter #15 indeed is cleaved by OMA1, then phenanthroline should prevent this at least to a certain extend by inhibiting OMA1 and accordingly preserving the signal. Hek293T cells were transfected with reporter gene #15 as described in the preceding example. After 24 hours, the transfected cells were incubated with 500 μM phenanthroline in OptiMEM. After 1 hour of pretreatment, CCCP in OptiMEM/phenanthroline was added to a final concentration of 10 μM CCCP and cells incubated for another 30 minutes at 37° C. After 30 minutes, the medium was replaced with furimazine (1:100 in OptiMEM), and bioluminescence measured as described in Example 1.
# as §1
# OMA1 protease [5] = target: T1, OMA1 protease; experiment: Rep #01 luciferase reporter assay in Hek293T cells; details: for bioluminescence of reporter #01 (mitochondrial toxicity): Hek293T cells exposed 30 minutes
# From the text: Example 1 provides a nonlimiting example of generation and use of a reporter of present invention and illustrates its function. To this end, generation and use of reporter gene #01 (SEQ ID NO: 01) and reporter gene #15 (SEQ ID NO: 15) are described and their function compared to each other. The general design of a reporter of present invention is illustrated in FIG. 1A and its working principle in FIG. 1B. A reporter in general, and reporter gene #01 and reporter gene #15 in particular, can be generated as follows. DNA sequences of a reporter may be codon-optimized in silico or by any other way for expression in a suitable host. DNA sequences of reporter genes #01 and #15 were codon-optimized for expression in humans (SEQ ID NO: 02 and SEQ ID NO: 16, respectively). The (optimized) sequences were synthesized and cloned into a pcDNA3.1 expression vector under the control of a CMV promotor (see FIG. 1 for an illustration of such vector). Of course, an expression system and a host should match for best results. The host in this example were Hek293T cells, which were maintained under standard culture conditions in DMEM with 10% Fetal Bovine Serum and 1% Pen/Strep. For an experiment, Hek293T cells were seeded in opaque white tissue-culture treated 96-well plates at 80% confluency and transfected with vectors carrying reporter gene #01 and reporter gene #15 and 24 hours later incubated for 30 minutes at 37° C. in OptiMEM or in OptiMEM with 10 μM CCCP. After 30 minutes, the OptiMEM cell-culture media was replaced with luciferase substrate (furimazine, Promega) diluted 1:100 in OptiMEM, and bioluminescence was measured with a Fluoroskan Ascent FL (Thermo Scientific) using a 517 nm single-pass filter and 200 milliseconds integration time. […]
# Example 5 illustrates how mitochondrial toxicity can be measured with reporter and assays of present invention. […] Hek293T cells expressing reporter #01 and #15 were exposed to CCCP, tipranavir and sorafenib (in OptiMEM) for 30 minutes before the medium was replaced with furimazine (1:100), and bioluminescence measured.
# OMA1 protease [6] = target: T1, OMA1 protease; experiment: Rep #15 / Luke-S1 assay for OMA1 inhibitors (preincubation with test compound, then OMA1 activator); format: cell-based; set-up: The OMA 1 enzyme is dormant under physiological cell culture conditions in these cells; endogenous in cells; details: 500 μM phenanthroline 1 hour, then 10 μM CCCP 30 minutes
# Procedure: Example 2 refers to FIG. 4 and illustrates hydrolysis of reporter #01 and reporter #15. For this example, transfected cells were selected by puromycin. Reporter cells were exposed for 30 minutes to 10 μM CCCP before being harvested in RIPA buffer and subjected to 12% SDS-PAGE followed by Western-blotting. […] Full-length reporter #01 has a predicted size of 39.6 kDa but was not detected in Western blots. […] At the same time, reporter #15 is not processed upon import, but migrated at its expected size of 31.9 kDa. (Example 7 establishes mitochondrial import by showing co-migration of reporter #15 with OPA1 and OMA1 in mitochondria-enriched fractions.) Reporter #15 appears to be more abundant and stable, which may explain its better performance. […] This provides additional evidence that reporter #15 is indeed localized in mitochondria where it is recognized and hydrolyzed by OMA1. […] Therefore, phenanthroline was used as a positive control in the reporter assay. If reporter #15 indeed is cleaved by OMA1, then phenanthroline should prevent this at least to a certain extend by inhibiting OMA1 and accordingly preserving the signal. Hek293T cells were transfected with reporter gene #15 as described in the preceding example. […] After 30 minutes, the medium was replaced with furimazine (1:100 in OptiMEM), and bioluminescence measured as described in Example 1. […]
compound,measurement,setting,value
CC(C)[C@@H]1NC(=O)[C@H](C)OC(=O)[C@@H](C(C)C)NC(=O)[C@@H](C(C)C)OC(=O)[C@H](C(C)C)NC(=O)[C@H](C)OC(=O)[C@@H](C(C)C)NC(=O)[C@@H](C(C)C)OC(=O)[C@H](C(C)C)NC(=O)[C@H](C)OC(=O)[C@@H](C(C)C)NC(=O)[C@@H](C(C)C)OC1=O [valinomycin],EC50,OMA1 protease [1],0.0176 µM
same,"Luke-S1 signal, cells transfected with OMA1 siRNA","OMA1 protease [1]; 100 nM valinomycin, 30 minutes",no significant signal reduction
same,"Luke-S1 signal, cells transfected with control siRNA","OMA1 protease [1]; 100 nM valinomycin, 30 minutes",significant signal reduction
same,real-time bioluminescence versus cells without valinomycin,"OMA1 protease [1]; Luke-S1, 100 nM valinomycin added with luciferase substrate, 25 minutes",marked signal reduction from the start of the measurement
same,signal intensity normalized to untreated cells,"OMA1 protease [1]; valinomycin treated controls of the cancer drug screen, untreated = 100%",18.5%
same,real-time bioluminescence versus cells without valinomycin,"OMA1 protease [2]; Luke-TEV, 100 nM valinomycin added with luciferase substrate",much smaller difference
same,effect on Luke-TEV signal,"OMA1 protease [2]; dose-response, 30 minutes",only a minor signal reduction
same,real-time bioluminescence versus cells without valinomycin,"NanoLuc luciferase; Luke, 100 nM valinomycin added with luciferase substrate, after 10 minutes",no notable differences
same,effect on Luke bioluminescence,"NanoLuc luciferase; dose-response, 30 minutes",no effects
same,half maximal effective concentration (EC50),"OMA1 protease [3]; reporter #15-S1, 30 minutes",low nanomolar range
same,half maximal effective concentration (EC50),"OMA1 protease [3]; reporter #15-TEV, 30 minutes",low nanomolar range
same,OPA1 hydrolysis in Western blots,L-OPA1; 0.1 μM (100 nM) valinomycin,sufficed for OPA1 cleavage; also recorded: complete L-OPA1 proteolysis
same,Luke-S1 reporter cleavage in Western blots,OMA1 protease [4],induced cleavage of the Luke-S1 reporter
same,Luke-TEV reporter cleavage in Western blots,OMA1 protease [4],cleaved
"COC1=CC(=O)O[C@@H](/C=C/c2ccccc2)C1 [kavain, Kavain]",EC50,OMA1 protease [1],14 µM
CCC[C@@]1(CCc2ccccc2)CC(O)=C([C@H](CC)c2cccc(NS(=O)(=O)c3ccc(C(F)(F)F)cn3)c2)C(=O)O1 [tipranavir],EC50,OMA1 protease [1],9 µM
same,bioluminescence of reporter #01 (mitochondrial toxicity),OMA1 protease [5],deactivated; also recorded: significantly reduced bioluminescence
c1cnc2c(c1)ccc1cccnc12 [phenanthroline],bioluminescence signal of reporter #15 after pretreatment,OMA1 protease [6],prevented reporter #15 deactivation and maintained the bioluminescence signal; also recorded: largely preserved
"N#CC(C#N)=NNc1cccc(Cl)c1 [CCCP, carbonyl cyanide m-chlorophenyl hydrazone]",bioluminescence signal of reporter #01,"OMA1 protease [5]; 10 μM CCCP, 30 minutes",significantly reduced
same,bioluminescence of reporter #01 (mitochondrial toxicity),OMA1 protease [5],significantly reduced bioluminescence
same,OPA1 hydrolysis in Western blots,L-OPA1; 3 μM CCCP,complete disappearance of L-OPA1 isoforms; also recorded: complete L-OPA1 proteolysis
same,Luke-S1 reporter cleavage in Western blots,OMA1 protease [4],induced cleavage of the Luke-S1 reporter
same,Luke-TEV reporter cleavage in Western blots,OMA1 protease [4],cleaved
same,processing of reporter #01 in Western blot,"OMA1 protease [4]; 10 μM CCCP, 30 minutes",led to processing
same,processing of reporter #15 in Western blot,"OMA1 protease [4]; 10 μM CCCP, 30 minutes",led to processing
